What is called GI50 is the concentration that inhibits growth by half. As a reminder, the TGI is the concentration giving total growth inhibition. Read a low TGI as greater sensitivity of the cells.

The text below walks through data of PubChem BioAssay (NCI).

The structures appear in SMILES notation.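 The compound was tested at five concentrations on cells cultured in 96-well plates, with a 48-hour exposure period. GI50 = concentration required for 50% inhibition of growth. TGI is the concentration that stops growth completely.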

Some test systems named below: CAKI-1 renal; COLO 205 colon; DU-145 prostate; IGROV1 ovarian; MDA-MB-435; MOLT-4 leukemia; NCI/ADR-RES ovarian; SK-MEL-28 melanoma; SNB-75 CNS; SR leukemia.
What all share (test): DTP human tumour cell line panel, 48 h

For `COc1ccc(-c2oncc2-c2cc(OC)c3c(c2)OCO3)cc1`, the GI50 was 2160 nM with CAKI-1 renal; 2800 nM in the experiment with COLO 205 colon; 3930 nM in the experiment on DU-145 prostate; 3900 nM in the experiment with IGROV1 ovarian; 275 nM in the experiment with MDA-MB-435; 3900 nM in the experiment with MOLT-4 leukemia. The GI50 was 1630 nM in the experiment on NCI/ADR-RES ovarian, 3210 nM in the experiment with SK-MEL-28 melanoma, 1430 nM with SNB-75 CNS and 1130 nM in the experiment with SR leukemia. For the same molecule, the TGI in the experiment with CAKI-1 renal is 31.2 µM; with COLO 205 colon, 10.4 µM; with DU-145 prostate it was greater than 100 µM; in the experiment on IGROV1 ovarian, greater than 65.7 µM; in the experiment with MDA-MB-435 it was 1270 nM; in the experiment on MOLT-4 leukemia it was greater than 92.6 µM. Besides, the TGI was 24.4 µM in the experiment with NCI/ADR-RES ovarian, greater than 100 µM in the experiment on SK-MEL-28 melanoma, 5.12 µM in the experiment on SNB-75 CNS and 39.6 µM in the experiment with SR leukemia.

Turning to `COc1ccc2oc(-c3ccc(Cl)cc3)c(N3CCN(C)CC3)c2c1`, the GI50 is 1570 nM in the experiment on CAKI-1 renal; 1680 nM with COLO 205 colon; 1880 nM in the experiment with DU-145 prostate; 1050 nM with IGROV1 ovarian; 1830 nM with MDA-MB-435; 2280 nM with MOLT-4 leukemia. The GI50 in the experiment on NCI/ADR-RES ovarian is 2190 nM; in the experiment on SK-MEL-28 melanoma, 1620 nM; in the experiment on SNB-75 CNS it was 1480 nM; with SR leukemia, 2270 nM. Further, the total growth inhibition concentration (TGI) was found to be 3.27 µM in the experiment with CAKI-1 renal; 3.62 µM in the experiment with COLO 205 colon; 3.98 µM in the experiment with DU-145 prostate; 2.69 µM with IGROV1 ovarian; 4060 nM in the experiment on MDA-MB-435; 6.95 µM in the experiment on MOLT-4 leukemia. Besides, the TGI is 5.46 µM in the experiment with NCI/ADR-RES ovarian, 3.08 µM with SK-MEL-28 melanoma, 4.01 µM in the experiment on SNB-75 CNS and 8.12 µM with SR leukemia.

`O=C(/C=C/c1ccc2c(c1)OCO2)c1ccccc(=O)c1O`: the TGI with CAKI-1 renal is 24.1 µM; with COLO 205 colon, 20.2 µM; with DU-145 prostate, 46.7 µM; with IGROV1 ovarian it was 41.8 µM; in the experiment on MDA-MB-435, greater than 100000 nM; with MOLT-4 leukemia, greater than 100 µM. For the same molecule, the TGI in the experiment on NCI/ADR-RES ovarian is 14.2 µM; in the experiment on SK-MEL-28 melanoma it was 90.4 µM; in the experiment with SNB-75 CNS, 33.1 µM; in the experiment on SR leukemia, greater than 100 µM.

As for `CCN(CC)CCCC(C)Nc1ccnc2cc(Cl)c(SCc3ccccc3)cc12` (stereo not given), the GI50 in the experiment with CAKI-1 renal is 1190 nM; in the experiment on COLO 205 colon, 1040 nM; in the experiment on DU-145 prostate it was 3450 nM; in the experiment with IGROV1 ovarian it was 1810 nM; in the experiment on MDA-MB-435, 275 nM; in the experiment with MOLT-4 leukemia, 623 nM. Also, the GI50 in the experiment with NCI/ADR-RES ovarian is 1440 nM; with SK-MEL-28 melanoma it was 1150 nM; in the experiment on SNB-75 CNS it was 1660 nM; in the experiment with SR leukemia, 173 nM. Moreover, the TGI is 2.94 µM with CAKI-1 renal; 2.3 µM in the experiment on COLO 205 colon; 13.5 µM in the experiment on DU-145 prostate; 4.95 µM in the experiment on IGROV1 ovarian; 838 nM in the experiment on MDA-MB-435; 4.14 µM with MOLT-4 leukemia. In addition, the TGI in the experiment on NCI/ADR-RES ovarian came to 3.17 µM; with SK-MEL-28 melanoma, 2.41 µM; in the experiment on SNB-75 CNS, 3.32 µM; in the experiment on SR leukemia, 0.539 µM.

With `CN(C)CCOc1cccc(NC2=C(Cl)C(=O)C(Nc3cccc(OCCN(C)C)c3)=C(Cl)C2=O)c1`, the GI50 with CAKI-1 renal was 1440 nM; in the experiment with COLO 205 colon it was 258 nM; in the experiment with DU-145 prostate, 366 nM; in the experiment on IGROV1 ovarian, 235 nM; in the experiment on MDA-MB-435, 666 nM; with MOLT-4 leukemia, 255 nM. The GI50 is 2440 nM with NCI/ADR-RES ovarian, 1030 nM in the experiment on SK-MEL-28 melanoma, 1930 nM in the experiment on SNB-75 CNS and 218 nM in the experiment on SR leukemia. For the same molecule, the TGI in the experiment on CAKI-1 renal was found to be 2.81 µM; with COLO 205 colon it was 0.684 µM; in the experiment with DU-145 prostate it was 1.27 µM; in the experiment on IGROV1 ovarian, 0.663 µM; in the experiment with MDA-MB-435 it was 1900 nM; in the experiment with MOLT-4 leukemia, 0.844 µM. Also, the TGI with NCI/ADR-RES ovarian is greater than 26.4 µM; in the experiment with SK-MEL-28 melanoma, 2.49 µM; with SNB-75 CNS, 4.87 µM; in the experiment on SR leukemia, 0.783 µM.

Turning to `CSc1ccc2c(c1)C(=O)c1c-2n(CCCN=[N+]=[N-])c(=O)c2cc([N+](=O)[O-])ccc12`, the GI50 in the experiment with CAKI-1 renal is 2330 nM; in the experiment with COLO 205 colon, greater than 23700 nM; in the experiment with DU-145 prostate, 1730 nM; with IGROV1 ovarian it was 8860 nM; in the experiment on MDA-MB-435 it was 14100 nM; in the experiment on MOLT-4 leukemia, 371 nM. Moreover, the GI50 was 3150 nM with NCI/ADR-RES ovarian, 51400 nM with SK-MEL-28 melanoma, 7420 nM with SNB-75 CNS and 200 nM in the experiment with SR leukemia. Besides, the TGI is greater than 66.5 µM in the experiment on CAKI-1 renal; greater than 100 µM in the experiment with COLO 205 colon; greater than 100 µM in the experiment on DU-145 prostate; greater than 100 µM with IGROV1 ovarian; greater than 100000 nM with MDA-MB-435; 6.38 µM in the experiment on MOLT-4 leukemia. The TGI with NCI/ADR-RES ovarian is greater than 100 µM; in the experiment on SK-MEL-28 melanoma, greater than 100 µM; in the experiment with SNB-75 CNS, greater than 79.7 µM; in the experiment on SR leukemia, 5.8 µM.
